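Results reflect a 48-hour exposure of cells in 96-well plates to compound at five concentrations. GI50 is the concentration that inhibits growth by half.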 Active and inactive are the calls of the source. No stated cut-off is given here; in the data, active = GI50 up to about 1.1 µM and inactive = higher.

What all share (experiment): NCI-60 cell line screen, 48 h
For assay [1], the system named is KM12.
In assay [2] the test system is SK-MEL-2.
The subject of assay [3] is LOX IMVI.
Assay [4] concerns IGROV-1.
Assay [5] has as its system SF-268.
Assay [6] has as its system MDA-MB-435.
Assay [7] has as its system HOP-62.
Assay [8] deals with MDA-N.
The test system of assay [9] is RPMI-8226.
The subject of assay [10] is UACC-62.
Assay [11] concerns MOLT-4.
In assay [12] the test system is UACC-257.
Assay [13] deals with HCT-116.
The test system of assay [14] is ACHN.
The test system of assay [15] is SR.
The test system of assay [16] is OVCAR-5.
In assay [17] the test system is A498.
For assay [18], the system named is HCC 2998.
In assay [19] the test system is SF-539.

In the case of `O=C1NC(Cc2c[nH]c3ccccc23)C(=O)N2C(C3CCCCC3)c3[nH]c4ccccc4c3C[C@@H]12` (some centres undefined), the GI50 is 11.8 µM (inactive) in assay [1]; 14.4 µM (inactive) in assay [2]; 13.3 µM (inactive) in assay [3]; 13.8 µM (inactive) in assay [4]; 13.1 µM (inactive) in assay [5]; 11 µM (inactive) in assay [6]. The GI50 in [7] is 18.2 µM (inactive); in assay [8] it was 11.1 µM (inactive); in assay [9] it was 9.02 µM (inactive); in [10], 15.3 µM (inactive); in assay [11], 5.97 µM (inactive); in assay [12] it was 12.1 µM (inactive). Also, the GI50 was 10.2 µM (inactive) in assay [13]; 17.7 µM (inactive) in assay [14]; 7.45 µM (inactive) in [15]; 20.7 µM (inactive) in assay [16]; 15.2 µM (inactive) in assay [17].

On to `CCOC(=O)c1c(SCCN2CCCCC2)n(-c2ccccc2)c(=S)n(-c2ccccc2)c1=O`, for which the GI50 was 19 µM (inactive) in assay [1]; > 100 µM (inactive) in assay [2]; 12.8 µM (inactive) in [3]; > 10 µM (inactive) in assay [4]; 28.6 µM (inactive) in [5]; 16.3 µM (inactive) in assay [6]. Also, the GI50 was > 38.9 µM (inactive) in [18]; 14 µM (inactive) in assay [7]; 18.5 µM (inactive) in assay [8]; 2.74 µM (inactive) in [9]; 25.8 µM (inactive) in assay [10]; 2.28 µM (inactive) in [11]. Further, the GI50 in [12] is 12.4 µM (inactive); in assay [13] it was 2.18 µM (inactive); in assay [14], 17.7 µM (inactive); in assay [15], 2.72 µM (inactive); in assay [16], > 100 µM (inactive).

As for `C[n+]1ccc2/c(=C\C#N)c3ccccc3n21`, the GI50 in [1] was 19.2 µM (inactive); in assay [2] it was 30.8 µM (inactive); in assay [3], 15.9 µM (inactive); in assay [4] it was 23.9 µM (inactive); in assay [5], 32.2 µM (inactive); in assay [6], 23.3 µM (inactive). Further, the GI50 in [18] is 19 µM (inactive); in [7], 30.7 µM (inactive); in assay [8], 32.5 µM (inactive); in [9], 11.8 µM (inactive); in assay [10], 34.8 µM (inactive); in assay [11], 30.8 µM (inactive). For the same molecule, the GI50 in assay [12] was < 0.01 µM (active); in assay [13] it was 29.7 µM (inactive); in assay [14] it was 39.2 µM (inactive); in assay [15], 18.2 µM (inactive); in [16], 37.3 µM (inactive).

With `COC1OC2COC1(OCc1ccccc1)C1OC(C)(C)OC21` (centres undefined), the GI50 in assay [1], in [2], in assay [4], in assay [5], in assay [6] and in assay [18] was > 100 µM (inactive) throughout. The GI50 in [7], in [8], in assay [9], in assay [10], in [11] and in assay [12] was > 100 µM (inactive) each time. Further, the GI50 in [13], in assay [14], in [15], in assay [16] and in [17] was > 100 µM (inactive) in each case.

Turning to `CCCCCCCCCCCCCOCCOCCOCCCCC(O)CCCCCCCCCC1=C[C@H](C)OC1=O` (some centres undefined), the GI50 in [1] was 19.1 µM (inactive); in assay [2], 23 µM (inactive); in assay [3] it was 4.31 µM (inactive); in assay [4], 18.1 µM (inactive); in assay [19] it was 18.7 µM (inactive); in assay [5], 18.1 µM (inactive). Further, the GI50 in [6] is 16.9 µM (inactive); in assay [18], 17 µM (inactive); in assay [7], 30.8 µM (inactive); in [8], 15 µM (inactive); in assay [9] it was 1.96 µM (inactive); in assay [10], 20 µM (inactive). Also, the GI50 in assay [11] was 7.59 µM (inactive); in assay [12], 13.2 µM (inactive); in assay [13], 0.766 µM (active); in [14], 28.6 µM (inactive); in assay [15], 2.08 µM (inactive); in assay [16] it was 28 µM (inactive).

Turning to `CC(C)CNC(=O)Cn1c(-c2ccccc2)cc2ccccc21`, the GI50 in assay [1], in assay [2], in assay [3], in assay [4], in assay [19] and in assay [5] was > 100 µM (inactive) throughout. The GI50 in [6], in assay [18], in assay [7], in assay [8], in [9] and in assay [10] was > 100 µM (inactive) each time. Besides, the GI50 in assay [11], in [12], in assay [13], in [14], in assay [15] and in assay [16] was > 100 µM (inactive) in each case.

As to `C[C@H](NC1=CC(=O)C(N[C@@H](C)[C@H](O)c2ccccc2)=CC1=O)[C@H](O)c1ccccc1`, the GI50 in assay [1] is 59.3 µM (inactive); in [2] it was > 100 µM (inactive); in [3], > 100 µM (inactive); in assay [4], > 100 µM (inactive); in assay [19], 63.8 µM (inactive); in [5], > 100 µM (inactive). Further, the GI50 in assay [6] is 81.5 µM (inactive); in [7] it was > 100 µM (inactive); in [8], > 100 µM (inactive); in assay [9], > 100 µM (inactive); in [10], 87.9 µM (inactive); in assay [11], 37.2 µM (inactive). The GI50 in assay [12] is > 100 µM (inactive); in assay [13] it was 68.4 µM (inactive); in assay [14], 96.6 µM (inactive); in [15], 14.6 µM (inactive); in assay [16], > 100 µM (inactive); in assay [17], > 100 µM (inactive).

For `CC(Cn1c2c(c3cc(O)ccc31)CCc1ccc(O)cc1-2)N(C)C` (centres undefined), the GI50 in assay [1] is 15.9 µM (inactive); in assay [2], 16.4 µM (inactive); in assay [3], 23.4 µM (inactive); in assay [4], 12.8 µM (inactive); in assay [19] it was 16.1 µM (inactive); in [5] it was 20.7 µM (inactive). The GI50 is 17.9 µM (inactive) in assay [6]; 15.6 µM (inactive) in assay [7]; 18.8 µM (inactive) in assay [8]; 38.3 µM (inactive) in assay [9]; 15.8 µM (inactive) in assay [10]; 35.6 µM (inactive) in assay [11]. Also, the GI50 was 19.9 µM (inactive) in [12]; 19.7 µM (inactive) in assay [13]; 15.8 µM (inactive) in assay [14]; 48.2 µM (inactive) in assay [15]; 19.3 µM (inactive) in [16]; 26.3 µM (inactive) in assay [17].

Take `Cc1ncc([N+](=O)[O-])n1CCNCCCCn1ccnc1[N+](=O)[O-]`: the GI50 in assay [1], in [2], in [3], in assay [4], in [19] and in assay [5] was > 100 µM (inactive) each time. For the same molecule, the GI50 in assay [6], in assay [7], in assay [8], in assay [9], in [10] and in assay [11] was > 100 µM (inactive) throughout. Moreover, the GI50 in assay [12], in assay [13], in assay [14], in [15], in [16] and in [17] was > 100 µM (inactive) each time.

Regarding `c1ccc2c(c1)ccn2CCc1c[nH]c2ccccc12`, the GI50 in assay [1], in [2], in assay [3], in assay [4], in [19] and in [5] was > 10 µM (inactive) in each case. The GI50 in [6], in [18], in assay [7], in assay [8], in [9] and in assay [10] was > 10 µM (inactive) in each case. For the same molecule, the GI50 in assay [11], in [12], in assay [13], in assay [14], in [15] and in assay [16] was > 10 µM (inactive) throughout.

With `COC(=S)OC1CC(n2cnc3c(=O)[nH]cnc32)OC1CO[Si](C)(C)C(C)(C)C` (centres undefined), the GI50 in assay [1], in [2], in assay [3], in assay [4], in assay [19] and in [5] was > 100 µM (inactive) throughout. The GI50 in [6], in assay [7], in assay [8], in assay [9], in assay [10] and in assay [11] was > 100 µM (inactive) in each case. Further, the GI50 in assay [12], in assay [13], in [14], in [15], in assay [16] and in assay [17] was > 100 µM (inactive) in each case.
